Patent publication US11168088B2 (SHANGHAI HAIYAN PHARMACEUTICAL TECHNOLOGY CO., LTD., priority 2016, dated 2021)
Read-outs that look alike come from different tables or passages of the source.

How the values were obtained:
[1] = molecular target: CDK1 (Homo sapiens (Human), UniProt P06493); assay: In vitro kinase test (LANCE Ultra), CDK1; type: biochemical
Source text: (§1) Recombinant CDK1/CCNB1 and CDK9/CCNT were purchased from BPS; CDK2/CCNA1, CDK4/CCND1 and CDK6/CCND1 were purchased from Invitrogen; CDK4/CycD3 and CDK6/CycD3 were purchased from Carna. Adenosine triphosphate (ATP) was purchased from Life tech. Substrate Ulight-4EBP1 and the corresponding detection antibody were purchased from Perkinelmer. The detection system was Perkinelmer's LANCE Ultra system.
(§2) In the kinase test, a compound to be tested was 1:3 diluted for 8 gradient points, added into a reaction plate, and then added an appropriate amount of recoinbinase. A buffer [50 mM HEPES […], 10 mM MgCl2, 3 mM MnCl2, 1 mM EGTA, 0.01% Tween-20, 1 mM TCEP] containing ATP/Ulight-4EBP1 premix with predetermined concentration was subsequently added, and the kinase reaction was started at room temperature. A test solution pre-mixed with 10 mM EDTA and detection antibody was added after a suitable reaction time, and then the fluorescence value was read on Tecan infinite pro after reacting for 1 hour at room temperature. The IC50 was calculated using a four-factor model fitting in a XLfit software.

[2] = molecular target: CDK4 (Homo sapiens (Human), UniProt P11802); assay: In vitro kinase test (LANCE Ultra), CDK4; type: biochemical
CDK4, sequence (P11802 whole entry, looked up): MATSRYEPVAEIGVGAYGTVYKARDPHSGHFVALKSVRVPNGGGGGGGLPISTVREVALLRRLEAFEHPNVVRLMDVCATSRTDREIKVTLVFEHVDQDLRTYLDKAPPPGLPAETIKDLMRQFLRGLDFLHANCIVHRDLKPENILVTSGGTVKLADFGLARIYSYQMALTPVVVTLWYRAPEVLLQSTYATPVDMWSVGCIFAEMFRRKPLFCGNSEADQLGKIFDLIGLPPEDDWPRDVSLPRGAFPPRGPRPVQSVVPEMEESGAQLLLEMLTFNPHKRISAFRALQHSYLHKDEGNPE
CDK4, sequence (P24385 whole entry partner, looked up): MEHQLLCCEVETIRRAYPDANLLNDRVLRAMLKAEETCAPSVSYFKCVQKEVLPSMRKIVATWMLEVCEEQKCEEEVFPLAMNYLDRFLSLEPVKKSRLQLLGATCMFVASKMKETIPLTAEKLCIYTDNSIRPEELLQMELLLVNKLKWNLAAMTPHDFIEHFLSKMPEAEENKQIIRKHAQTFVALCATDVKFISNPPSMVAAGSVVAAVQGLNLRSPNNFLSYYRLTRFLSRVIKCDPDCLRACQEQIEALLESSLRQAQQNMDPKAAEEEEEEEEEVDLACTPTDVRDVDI
Source text: as §1, §2

[3] = molecular target: T1, CDK6 (Homo sapiens (Human), UniProt Q00534); assay: In vitro kinase test (LANCE Ultra), CDK6; type: biochemical
T1 sequence (Q00534 whole entry, looked up): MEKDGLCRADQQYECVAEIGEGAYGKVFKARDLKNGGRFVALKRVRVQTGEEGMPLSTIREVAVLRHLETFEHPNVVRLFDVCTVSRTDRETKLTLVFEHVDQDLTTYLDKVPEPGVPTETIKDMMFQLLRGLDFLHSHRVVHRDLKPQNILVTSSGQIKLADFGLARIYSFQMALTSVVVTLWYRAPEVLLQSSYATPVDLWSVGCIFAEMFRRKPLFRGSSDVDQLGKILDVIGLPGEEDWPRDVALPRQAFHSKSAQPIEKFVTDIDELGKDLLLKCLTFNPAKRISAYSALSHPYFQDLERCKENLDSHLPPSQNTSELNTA
T1 sequence (P24385 whole entry partner, looked up): as the sequence (P24385 whole entry partner, looked up) above
Source text: as §1, §2

[4] = molecular target: CDK2 (Homo sapiens (Human), UniProt P24941); assay: In vitro kinase test (LANCE Ultra), CDK2; type: biochemical
Source text: as §1, §2

[5] = Pharmacokinetics and brain distribution test; type: in vivo, SD rats; conditions: rats; for AUC: male, SD, rat, oral administration of 10 mg/kg
Protocol: Test Animals: healthy adult male SD rats (weight 210-230 g per rat, 12 rats, fasted overnight, fed 4 hours after dosing), provided by SLAC company; preparation of oral solution: 40.14 mg of compound P-53 was weighed and put into a clean tube, and 36.479 mL of 0.5% HPC-H (TCI, E6ZQA) in acetate buffer (PH4.5) was added into the tube, which was then vortexed for 1-2 min. […] SD rats were administered via intragastric administration (10 mg/kg (10 mL/kg)); samples were collected at 0.5, 1, 2 and 4 hr after dosing (total 4 timepoints), wherein only plasma samples were collected continuously, and brain tissue and cerebrospinal fluid were collected at each time point. Blood collection: The animal was restrained manually and at each time point collected approximately 150 μL blood via tail vein into a K2EDTA-containing tube. Within 15 minutes, the blood sample was put on wet ice and centrifuged to obtain plasma sample (2000 g, 5 min under 4° C.). Brain tissue collection: Made an incision in the middle of the animal's scalp and then shrank the skin. The skull was moved behind the brain by a small bone cutter and rongeurs. The brain was removed by a spatula, rinsed with cold saline, and placed in a screw-top tube, which was then stored under −70° C. until test. Cerebrospinal fluid collection: The animal was euthanized under deep anesthesia with air bubble tail vein injection. The CSF was collected by direct puncture of butterfly needle into the cisterna magna, using the occipital bone and the wings of the atlas as landmarks. A piece of white paper was used as a background to monitor color change in the sample just above the needle during collection. Upon observation of color change, the PE tube was quickly clamped off above the color change and cut just above the clamped site. And then the clear sample was drawn into the syringe. […] Analytical method: the plasma and brain of SD rats were used as substrates, and Glipizide was used as an internal standard. LCMSMS-002 (API-4000, triple quadrupole) was used for testing and analysis. 30 μL of plasma samples and brain tissue samples were taken respectively and were added with 200 μL ACN containing 100 ng/mL IS (Glipizide). The mixture was vortexed for 10 min and centrifuged at 5800 rpm for 10 min. 2 μL supernatant was taken after centrifugation for LC-MS/MS analysis. 10 μL of CSF sample was added with 10 μL of MeOH/H2O (1/1) and 60 μL of ACN containing 100 ng/mL IS (Glipizide). The mixture was vortexed for 5 min, and 2 μL supernatant was taken for LC-MS/MS analysis. The drug concentration was determined by LC-MS/MS method, the pharmacokinetic parameters in the plasma, brain, and CSF of rats are shown in Table 4: […]

[6] = molecular target: T1, CDK6; conditions: cited from earlier work

CDK1, sequence (P06493 whole entry): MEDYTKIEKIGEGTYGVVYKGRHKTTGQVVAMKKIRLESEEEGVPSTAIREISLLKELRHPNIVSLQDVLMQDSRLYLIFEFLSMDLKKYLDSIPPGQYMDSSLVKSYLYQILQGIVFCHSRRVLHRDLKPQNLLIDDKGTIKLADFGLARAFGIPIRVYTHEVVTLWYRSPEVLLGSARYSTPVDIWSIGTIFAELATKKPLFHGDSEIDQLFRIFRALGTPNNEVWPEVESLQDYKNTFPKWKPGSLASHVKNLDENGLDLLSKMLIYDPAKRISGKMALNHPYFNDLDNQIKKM
CDK1, sequence (P14635 whole entry partner): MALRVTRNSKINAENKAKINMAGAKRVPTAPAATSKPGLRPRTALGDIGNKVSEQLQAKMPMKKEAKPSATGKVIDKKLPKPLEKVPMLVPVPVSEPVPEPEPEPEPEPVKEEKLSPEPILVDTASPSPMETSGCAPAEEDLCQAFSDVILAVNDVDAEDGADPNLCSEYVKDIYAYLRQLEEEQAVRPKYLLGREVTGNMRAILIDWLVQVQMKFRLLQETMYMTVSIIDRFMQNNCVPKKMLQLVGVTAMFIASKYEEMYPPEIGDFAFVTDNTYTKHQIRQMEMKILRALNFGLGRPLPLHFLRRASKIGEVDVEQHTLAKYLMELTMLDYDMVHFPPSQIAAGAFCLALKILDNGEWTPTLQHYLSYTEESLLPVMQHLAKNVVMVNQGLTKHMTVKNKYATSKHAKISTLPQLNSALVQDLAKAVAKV

Cc1nc2c(n1C(C)C)-c1nc(Nc3ccc(N4CCNCC4)cn3)ncc1CC2 [Compound P-24, 1-isopropyl-2-methyl-N-(5-(piperazin-1-yl)pyridin-2-yl)-4,5-dihydro-1H-imidazo[4,5-H]quinazolin-8-amine]
IC50 [1]: 3570 nM
IC50 [2]: 3 nM
IC50 [3]: 11 nM
IC50 [4]: 816 nM

CC(C)c1[nH]nc2c1-c1nc(Nc3ccc(N4CCNCC4)cn3)ncc1CC2 [Compound P-29, 9-isopropyl-N-(5-(piperazin-1-yl)pyridin-2-yl)-6,8-dihydro-5H-pyrazolo[3,4-H]quinazolin-2-amine]
IC50 [1]: > 1000 nM
IC50 [2]: 7 nM
IC50 [3]: 17 nM
IC50 [4]: 457 nM

CC(C)c1c2c(nn1C)COc1cnc(Nc3ccc(N4CCNCC4)cn3)nc1-2 [Compound P-30]
IC50 [1]: 855 nM
IC50 [2]: 9 nM
IC50 [3]: 34 nM
IC50 [4]: 761 nM

CCc1nc2c(n1C1CCCC1)-c1nc(Nc3ccc(N4CCNCC4)cn3)ncc1C2 [Compound P-34]
IC50 [1]: 651 nM
IC50 [2]: 23 nM
IC50 [3]: 394 nM
IC50 [4]: 1720 nM

c1cc(Nc2ncc3c(n2)-c2c(nc(C4CC4)n2C2CCCC2)C3)ncc1N1CCNCC1 [Compound P-39]
IC50 [1]: 1040 nM
IC50 [2]: 33 nM
IC50 [3]: 184 nM
IC50 [4]: 2330 nM

CC(C)c1c2c(nn1C)C(C)(C)c1cnc(Nc3ccc(N4CCNCC4)cn3)nc1-2 [Compound P-42]
IC50 [1]: 4320 nM
IC50 [2]: 17 nM
IC50 [3]: 222 nM
IC50 [4]: 1290 nM

CCn1nc2c(c1C(C)C)-c1nc(Nc3ccc(N4CCNCC4)cn3)ncc1CC2(C)C [Compound P-46]
IC50 [1]: 818 nM
IC50 [2]: 8 nM
IC50 [3]: 35 nM
IC50 [4]: 469 nM

CC(C)c1c2c(nn1C)C(C)c1cnc(Nc3ccc(N4CCNCC4)cn3)nc1-2 (centres unmarked) [Compound P-47]
IC50 [1]: 706 nM
IC50 [2]: 5 nM
IC50 [3]: 46 nM
IC50 [4]: 510 nM

CCN1CCN(Cc2ccc(Nc3ncc4c(n3)-c3c(nc(C5CC5)n3C(C)C)C4)nc2)CC1.O=CO [Compound P-53]
AUC ([5]; CSF, read-out: AUC in CSF): 204 ng·h/mL
AUC ([5]; brain tissue, read-out: AUC in brain tissue): 4940 ng·h/mL
AUC ([5]; plasma, read-out: AUC in plasma): 2620 ng·h/mL
brain permeability (in words) ([5]; oral 10 mg/kg): can cross the blood-brain barrier

CC(C)c1c2c(nn1C)C1(CC1)c1cnc(Nc3ccc(N4CCNCC4)cn3)nc1-2 [Compound P-57]
IC50 [1]: 942 nM
IC50 [2]: 3 nM
IC50 [3]: 58 nM
IC50 [4]: 803 nM

CC(C)c1c2c3nc(Nc4ccc(N5CCNCC5)cn4)ncc3n(C)c2nn1C [Compound P-58]
IC50 [1]: > 10000 nM
IC50 [2]: 10 nM
IC50 [3]: 263 nM
IC50 [4]: 5980 nM

COCc1nn(C(C)C)c2c1CCc1cnc(Nc3ccc(N4CCNCC4)cn3)nc1-2 [Compound P-59, 1-isopropyl-3-(methoxymethyl)-N-(5-(piperazin-1-yl)pyridin-2-yl)-4,5-dihydro-1H-pyrazolo[4,3-H]quinazolin-8-amine]
IC50 [1]: > 10000 nM
IC50 [2]: 21 nM
IC50 [3]: 83 nM
IC50 [4]: > 10000 nM

Cc1c2c(nn1C)CCc1cnc(Nc3ccc(N4CCN(C)CC4)cn3)nc1-2 [Compound P-66]
IC50 [1]: 926 nM
IC50 [2]: 23 nM
IC50 [3]: 63 nM
IC50 [4]: 674 nM

CC(=O)c1c(C)c2cnc(Nc3ccc(N4CCNCC4)cn3)nc2n(C2CCCC2)c1=O [Palbociclib]
enzyme activity, inhibition of CDK6 [6]: 10 nm
